Assay results reported in PubChem BioAssay (NCI).
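Five compound concentrations were applied to cells in 96-well plates for 48 hours; endpoints were derived by simple linear interpolation of the resulting dose-response curve. GI50 = concentration required for 50% inhibition of growth. TGI marks complete inhibition of growth.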

How the values were obtained:
Test in all cases: NCI tumour cell line growth inhibition, 48 h
786-0 renal = tested on: 786-0 renal
A498 renal = tested on: A498 renal
M14 melanoma = tested on: M14 melanoma
MALME-3M melanoma = tested on: MALME-3M melanoma
MDA-MB-435 = tested on: MDA-MB-435
NCI-H460 lung = tested on: NCI-H460 lung
SK-MEL-2 melanoma = tested on: SK-MEL-2 melanoma
SK-MEL-5 melanoma = tested on: SK-MEL-5 melanoma
SNB-75 CNS = tested on: SNB-75 CNS
UO-31 renal = tested on: UO-31 renal

Row | SMILES | GI50 (786-0 renal) [µM] | TGI (786-0 renal) [µM] | GI50 (A498 renal) [µM] | TGI (A498 renal) [µM] | GI50 (M14 melanoma) [µM] | TGI (M14 melanoma) [µM] | GI50 (MALME-3M melanoma) [µM] | TGI (MALME-3M melanoma) [µM] | GI50 (MDA-MB-435) [µM] | TGI (MDA-MB-435) [µM] | GI50 (NCI-H460 lung) [µM] | TGI (NCI-H460 lung) [µM] | GI50 (SK-MEL-2 melanoma) [µM] | TGI (SK-MEL-2 melanoma) [µM] | GI50 (SK-MEL-5 melanoma) [µM] | TGI (SK-MEL-5 melanoma) [µM] | GI50 (SNB-75 CNS) [µM] | TGI (SNB-75 CNS) [µM] | GI50 (UO-31 renal) [µM] | TGI (UO-31 renal) [µM]
1 | C=C1C(=O)O[C@H]2[C@H]1CC/C(COC(=O)/C=C/c1cccnc1)=C\CC[C@@]1(C)O[C@@H]21 | 1.1 | 2.58 | 4.11 | 16.3 | 1.38 | 3.23 | 1.69 | 3.63 | 1.83 | 5.14 | 5.12 | 20 | 3.88 | 12.7 | 3.37 | 12.6 | 11.3 | 24.1 | 1.11 | 2.51
2 | O=P(Oc1ccccc1)(Oc1ccccc1)C(O)c1ccccc1 (stereo not given) | > 100 | > 100 | 34.8 | > 100 | > 100 | > 100 | 4.65 | > 100 | 74 | > 100 | > 100 | > 100 | 81.4 | > 100 | 53.1 | > 100 | 34.4 | > 100 | 29.8 | > 100
3 | Cc1c(C(=O)CCl)c(=O)n(-c2ccccc2)n1C | 10.7 | 24.3 | 1.24 | 11 | 3.13 | 15.4 | 1.31 | 6.98 | 2.57 | 11.5 | 7.94 | 32.1 | 3.99 | 14.5 | 3.66 | 14.5 | 10.9 | 29.5 | 3.24 | 18.5
4 | O=C(CCl)Nc1ccccc1SCc1cc(Cl)cc2c1OCOC2 | 12.6 | 26.4 | 12.9 | 26.2 | 4.68 | 16.8 | 2.3 | 5.96 | 2.87 | 11.1 | 18.4 | 38.1 | 11.4 | 24.8 | 4.09 | 16.4 | 8.55 | 23.3 | 2.95 | 15
5 | O=C1c2cccnc2-c2nc(-c3ccccn3)cc3c2c1nc1ccccc13 | 0.0825 | 0.26 | 0.481 | 1.5 | 0.228 | 1.36 | 0.377 | 1.72 | 0.728 | 2.09 | 0.0616 | 0.268 | 1.06 | 2.52 | 0.265 | 1.65 | 1.69 | 3.81 | 0.0539 | 0.219
6 | COc1ccc(/C=C/C(=O)/C=C(/C=C/c2ccc(OC)c(OC)c2)OB(F)F)cc1OC | 1.07 | 2.93 | 1.83 | 5.12 | 0.519 | 3.55 | 0.51 | 4.25 | 0.522 | 3.89 | 1.68 | 4.58 | 1.81 | 4.39 | 1.49 | 3.23 | 1.02 | 8.06 | 0.652 | 3.72
7 | COc1cccc(-c2nc(-c3ccc(NS(=O)(=O)c4ccccc4)cc3)[nH]c2-c2ccnc(Br)c2)c1 | 2.98 | > 100 | 1.25 | 5.03 | 2.03 | 6.09 | 1.76 | 5.22 | 2.51 | 9.21 | 2.85 | 8.71 | 2.5 | 6.62 | 1.87 | 3.49 | 1.92 | > 100 | 2.29 | 6.89
8 | COc1cc2c3c(n(CCCO)c(=O)c2cc1OC)-c1cc2c(cc1C3=O)OCO2 | 2.46 | 10.1 | 42.8 | > 73 | 3.68 | 32.8 | 21.6 | > 100 | 31.4 | > 100 | 0.845 | > 100 | 31.9 | > 100 | 11.3 | > 52.9 | 16.1 | > 79.1 | > 21.2 | > 100
9 | CS(=O)(=O)c1ccc(Oc2nccc(-c3c(-c4ccc(F)cc4)ncn3C3CCNCC3)n2)cc1 | > 25 | > 25 | > 25 | > 25 | > 25 | > 25 | > 25 | > 25 | > 25 | > 25 | > 25 | > 25 | > 25 | > 25 | > 25 | > 25 | > 25 | > 25 | > 25 | > 25
10 | OCc1ccc(N(Cc2ccc(F)cc2)C2CCC2)cc1Cl | 10.3 | 24.3 | 0.0332 | 0.156 | 15.8 | 32 | 16.2 | 31.3 | 16.2 | 31.1 | 0.275 | 10.2 | 4.89 | 20.1 | 9.11 | 21.8 | 12.2 | 24.8 | 1.88 | 15.2
11 | Cn1cc(-c2nc(-c3c[nH]c4ncccc34)cs2)c2cc(Cl)ccc21 | 4.62 | > 100 | 2.61 | 12.9 | 4.85 | 40.7 | 12.5 | 56.7 | 3.47 | > 100 | 3.2 | > 100 | 13.3 | > 100 | 7.48 | > 100 | 3.52 | > 100 | 2.81 | 75.5
12 | O=C1CC2(CCCc3sccc32)C(=O)N1 (stereo not given) | – | > 100 | – | > 100 | – | > 100 | – | > 100 | – | > 100 | – | > 100 | – | > 100 | – | > 100 | – | > 100 | – | > 100
13 | C=C1C(=O)OC2C1C(OC(=O)/C(C)=C/C)CC(O)(CCl)C1C(OC(C)=O)C=C(C)C21O (stereo not given) | – | 32.9 | – | > 53.6 | – | 25.7 | – | 14.9 | – | > 51.2 | – | 46.1 | – | 32.5 | – | 34.4 | – | 64.6 | – | 35
14 | COc1ccc(-n2c(-c3ccc(NC(=O)CCCl)cc3)nnc2-c2cc(OC)c(OC)c(OC)c2)cc1 | 12.5 | > 14.3 | 3.82 | 12.8 | 4.27 | > 14.3 | 4 | > 14.3 | 4.4 | > 14.3 | 2.5 | 7.33 | 3.01 | 7.16 | 3.46 | 10.3 | 3.46 | > 14.3 | 1.94 | 4.37
15 | O=C(CSc1nc2ccc([N+](=O)[O-])cc2[nH]1)Nc1cccc(C(F)(F)F)c1 | 2.98 | 13.1 | 0.963 | 3.52 | 3.17 | 14.9 | 1.48 | 6.66 | 2.5 | 12.8 | 2.88 | 11.3 | 1.96 | 5.99 | 1.03 | 2.57 | 1.61 | 7.81 | 1.81 | 8.9
16 | O=C(Nc1cccc(NS(=O)(=O)c2ccc(F)cc2)c1)c1ccc(-c2ccccc2)cc1 | 3.69 | > 100 | 4.69 | 25.9 | 3.63 | 17.1 | 2.81 | 10.2 | 3.26 | 13.7 | 3.42 | 14.7 | 2.42 | 7.88 | 1.88 | 3.74 | 6.07 | 44 | 2.56 | 16.9
17 | O=C(O)CSCC(=O)c1ccccc1 | – | > 100 | – | > 100 | – | > 100 | – | > 100 | – | > 100 | – | > 100 | – | > 100 | – | > 100 | – | > 100 | – | > 100
18 | CCN(Cc1ccc(F)cc1F)c1ccc(CO)c(Cl)c1 | 5.91 | 29 | 0.0316 | 0.136 | 20.3 | > 55.6 | 18.2 | 42.8 | 21 | > 59.6 | 0.259 | 6.68 | 5.36 | 21.3 | 5.75 | 20.5 | 12.8 | 45.3 | 4.52 | 43.8
19 | COc1c(O)cc2oc3cc(O)c(CC=C(C)C)c(O)c3c(=O)c2c1C/C=C(\C)CCC=C(C)C | 6.36 | 11.6 | 5.96 | 10.5 | 6.17 | 12.6 | 6.34 | 12 | 5.77 | 10.9 | 5.66 | 10.2 | 6.46 | 12.1 | 5.62 | 10.2 | 3.58 | 7.46 | 4.62 | 8.97
20 | O=c1oc2ccccc2cc1-c1ccc([N+](=O)[O-])cc1 | – | > 100 | – | > 100 | – | > 100 | – | > 100 | – | > 100 | – | > 100 | – | > 100 | – | > 100 | – | > 100 | – | > 100
21 | O=C(O)C(Cc1ccccc1-c1ccccc1)C(=O)O | – | > 100 | – | > 100 | – | > 100 | – | > 100 | – | > 100 | – | > 100 | – | > 100 | – | > 100 | – | > 100 | – | > 100
